Experiments:
Saos-2 = test: Osteosarcoma cell growth inhibition (trypan blue count); format: cell-based; settings: Homo sapiens, 96 h of treatment, read-out: IC50 ± SD, cellular viability, Saos-2
Description: (§1) The patient-derived human OS cell lines Saos-2, U-2OS, and MG-63 were obtained from ATCC (1992). The patient-derived OS cell lines IOR/OS9, IOR/OS20, and IOR/SARG were established and previously characterized at the Laboratory of Experimental Oncology of Rizzoli Orthopedic Institute. Cell lines were profiled for DNA copy number changes and DNA methylation status at approximately 27,000 CpG sites. The cell line PDX-OS#1-C4 was obtained from OS patient-derived xenograft (PDX) after 4 passages in the animal. All cell lines were tested for mycoplasma contamination (Mycoalert Mycoplasma Detection Kit, Lonza, Verviers, Belgium) before use and authenticated by short-tandem repeat polymerase chain reaction (STR PCR) analysis (last control December 2017) using PowerPlex ESX fast System kit (Promega, Madison, WI, USA). The following loci were verified: AMEL, D3S1358, TH01, D21S11, D18S51, D10S1248, D1S1656, D2S1338, D16S539, D22S1054, VWA, D8S1179, FGA, D2S441, D12S391, D19S433, and SE33. All cell lines were immediately amplified to constitute liquid nitrogen stocks and were never passaged for more than 1 month upon thawing. Cells were maintained in Iscove’s modified Dulbecco’s medium (IMDM) supplemented with 10% heat-inactivated FBS (Lonza, Verviers, Belgium), penicillin (20 U/mL), and streptomycin (100 μg/mL) (Sigma-Aldrich, Milan, Italy) in 37 °C humidified at 5% CO2.
(§2) To perform osteosarcoma cell growth inhibition experiments, 2 × 10^5 cells/well were plated, and MC3353 (0.1–30 μM) or DAC (0.5 μM) was added after 24 h. Cells were exposed for up to 96 h before being counted by Trypan blue vital cell count (Sigma-Aldrich, Milan, Italy). In parallel, the cells were treated with DMSO-containing medium as a control. The highest final concentration of DMSO in the medium was < 0.005%, and DMSO had no effect on cell growth.
(§3) IC50 values of compounds against cellular viability were determined by using nonlinear regression fitting curves with GraphPad Prism 8 or CalcuSyn software The t test used for statistical analyses was performed with GraphPad Prism 8. All the tests were one-tailed, and a p value < 0.05 was considered statistically significant.

IOR/OS9 = test: as above; format: cell-based; settings: Homo sapiens; 96 h of treatment; read-out: IC50 ± SD, cellular viability, IOR/OS9
Description: as §1, §2, §3

IOR/SARG = test: as above; format: cell-based; settings: Homo sapiens; 96 h of treatment; read-out: IC50 ± SD, cellular viability, IOR/SARG
Description: as §1, §2, §3

PDX-OS#1-C4 = test: as above; format: cell-based; settings: Homo sapiens; 96 h of treatment; read-out: IC50 ± SD, cellular viability, PDX-OS#1-C4
Description: as §1, §2, §3

U-2OS = test: as above; format: cell-based; settings: Homo sapiens, U2OS; 96 h of treatment; read-out: IC50 ± SD, cellular viability, U-2OS
Description: as §1, §2, §3

[1] = system: methylated UCHL1 promoter EGFP reporter in HCT116 cells; test: UCHL1 promoter demethylation assay (EGFP expression, FACS) in HCT116; format: cell-based, human; settings: 5 days, HCT116 with methylated pUCHL1 vector
Procedure: Human colon cancer HCT116 (ATCC, VA, USA) cells were propagated in McCoy’s 5A medium (Euroclone, Milan, Italy) with 10% fetal bovine serum (FBS; Euroclone), 2 mM L-glutamine (Euroclone), and antibiotics (100 U/mL penicillin, 100 µg/mL streptomycin) (Euroclone). For the treatments with MC3353, 5-AZA, and DAC as positive controls, 2 × 10^4 cells were seeded in 6-well plates in triplicate. Cells were treated every 2 days, and the medium was changed. On day 5, cells were observed under a fluorescent microscope. The nuclei were counterstained with DAPI (10 μg/mL, Invitrogen, Tournai, Belgium).
Fluorescence of EGFP and DAPI in living cells was analyzed by Cytation™ 5 Cell Imaging Multi-Mode Reader (BioTeK, Milan, Italy).
Before the transfection, the pUMLIEP vector was linearized by with ClaI restriction enzyme (New England Biolabs, Milan, Italy) and then it was methylated by SssI-methylase (New England Biolabs, Milan, Italy) for 60 min. The methylated vector was transfected into HCT116 cells using Lipofectamine™2000 (Invitrogen, Monza, Italy) and Opti-MEM® (Gibco, Monza, Italy), and stably introduced clones were selected with puromycin (1.0 μg/mL, Sigma-Aldrich, Milan, Italy). The detailed protocol for the generation of cells highly responsive to DNA demethylating agents is described in [27].
Next, the demethylating activity of MC3353 was evaluated in cells transfected with luciferase and EGFP reporter genes driven by the UCHL1 promoter. The UCHL1 promoter is silenced by methylation in human colon cancer and can be demethylated by specific treatments, inducing expression of Metridia luciferase and EGFP reporter genes. In particular, the pUCHL1 vector, after methylation, was transfected into HCT116 colon cancer cells, and the stable clone was obtained by puromycin selection. Afterwards, cells were treated with 5-AZA (5 μM), with DAC (5 μM), or with MC3353 (0.1 μM) for 5 days. Such a low MC3353 dose was used because of its cytotoxicity at higher concentrations in long treatments.

MMP2 mRNA in PC-3 cells = test: qPCR of MMP2 in PC-3; format: cell-based, human; settings: MC3353 0.1 and 1 μM 24 h; 5-AZA, DAC 5 days, also at 0.1 to 1 μM
Description: (§4) RNAs were extracted by ReliaPrep™ RNA Tissue Miniprep (Promega, Madison, WI, USA) and reverse transcribed with PrimeScript RT Master Mix (Takara, Kusatsu, Shiga, Japan). cDNAs were amplified by a qPCR reaction using GoTaq qPCR Master Mix (Promega) and analyzed with the oligonucleotide pairs specific for the target genes. Relative amounts, determined with the 2^(−ΔCt) method, were normalized with respect to the human housekeeping gene L32. The primers used are as follows: L32 (forward: 5′-[…]-3′, reverse: 5′-[…]-3′), E-cadherin (forward: 5′-[…]-3′, reverse: 5′-[…]-3′), and MMP2 (forward: 5′-[…]-3′, reverse: 5′-[…]-3′).
(§5) Prompted by these findings, we investigated the ability of MC3353 to modulate EMT pathway, using 5-AZA and DAC as reference drugs. […] The levels of mRNA transcripts of E-cadherin and matrix metalloproteinase-2 (MMP2) were determined. E-cadherin is involved in the maintenance of the epithelial identity and in the control of tumor invasiveness, whereas MMP2, through degradation of type IV collagen, the most abundant component of the basement membrane, controls an essential step for metastatic progression of most cancers as well as for induction of angiogenesis.

[2] = system: E-cadherin mRNA in PC-3 cells; test: qPCR of E-cadherin in PC-3; format: cell-based, human; settings: MC3353 24 h; 5-AZA, DAC 5 days, effect from 1 to 5 μM
Description: as §4, §5

Row | Structure (SMILES) | IC50 (Saos-2) [nM] | IC50 (IOR/OS9) [nM] | IC50 (IOR/SARG) [nM] | IC50 (PDX-OS#1-C4) [nM] | IC50 (U-2OS) [nM] | EGFP gene expression induction (FACS) ([1]; 5 μM) [%] | MMP2 mRNA expression, PC-3 (MMP2 mRNA in PC-3 cells) | E-cadherin mRNA expression, PC-3 [2] | EGFP gene expression induction (FACS) ([1]; 0.1 μM) [%]
1 | Nc1ncn([C@H]2C[C@H](O)[C@@H](CO)O2)c(=O)n1 [DAC, 5-aza-2′-deoxycytidine, reference compound] | 1000 ± 900 | 5700 ± 3400 | 5400 ± 1000 | 700 ± 600 | 1100 ± 900 | 49.7 | increased MMP2 level | able to induce E-cadherin expression | –
2 | O=C(Nc1ccc(NC(=O)c2ccc(Nc3ccnc4ccccc34)cc2)cc1)OCc1ccccc1 [MC3353, Benzyl (4-(4-(quinolin-4-ylamino)benzamido)phenyl)carbamate] | 1100 ± 300 | 2000 ± 100 | 1500 ± 100 | 2000 ± 100 | 1400 ± 100 | – | strongly downregulated | this effect was observed only at 1 μM dose | 81.4
